Reference: paper PMC6273807, “Identification of Selective ERRγ Inverse Agonists” (Molecules, 2016)

Columns and labels:
CYP2C19 = CYP2C19 (Homo sapiens, UniProt P33261); assay: CYP inhibition assay, cocktail, human liver microsomes (S-mephenytoin 4-hydroxylase); type: in vitro ADME; conditions: 10 μM, activity in presence of inhibitor as % of control
CYP2C9 = CYP2C9 (Homo sapiens, UniProt P11712); assay: CYP inhibition assay, cocktail, human liver microsomes (tolbutamide 4-hydroxylase); type: in vitro ADME
CYP2C9, sequence (P11712 whole entry, the tested form may be a part): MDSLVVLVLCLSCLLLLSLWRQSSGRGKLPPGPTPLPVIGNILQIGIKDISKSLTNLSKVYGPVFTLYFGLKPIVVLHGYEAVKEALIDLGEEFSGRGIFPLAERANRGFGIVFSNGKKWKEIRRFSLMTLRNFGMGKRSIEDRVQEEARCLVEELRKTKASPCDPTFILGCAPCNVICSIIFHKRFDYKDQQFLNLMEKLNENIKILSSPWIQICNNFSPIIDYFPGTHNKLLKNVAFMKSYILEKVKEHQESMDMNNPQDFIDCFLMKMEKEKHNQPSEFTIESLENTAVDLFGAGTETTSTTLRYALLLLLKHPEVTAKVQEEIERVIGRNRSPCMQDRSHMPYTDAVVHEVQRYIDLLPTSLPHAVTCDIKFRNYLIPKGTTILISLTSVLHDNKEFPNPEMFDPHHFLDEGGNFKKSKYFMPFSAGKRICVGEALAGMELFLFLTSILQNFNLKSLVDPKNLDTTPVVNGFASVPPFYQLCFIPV

ERRγ [1] = target: T1, ERRγ (Homo sapiens, UniProt P62508); assay: ERRγ functional assay: GAL4-ERRγ luciferase reporter gene in AD293 cells; type: cell-based
T1 sequence (P62508 233-458 limits assumed): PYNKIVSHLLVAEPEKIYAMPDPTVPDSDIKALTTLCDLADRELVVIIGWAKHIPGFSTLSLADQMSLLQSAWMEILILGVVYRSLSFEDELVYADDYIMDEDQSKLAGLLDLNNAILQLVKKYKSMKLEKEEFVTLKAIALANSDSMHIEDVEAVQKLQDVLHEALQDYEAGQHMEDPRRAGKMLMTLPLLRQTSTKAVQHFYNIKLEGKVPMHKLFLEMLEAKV
Description: Along with the binding assay campaign, functional activity was determined in order to validate the utility of the binding affinity in a cellular context as described in the Experimental.
Figure 2 Cell based reporter-gene assay screening of 16 analogs ERRγ binding activity in cell was measured by luciferase activity using co-transfection system with GAL4-ERRγ and pFR-luciferase reporter gene.
AD293 cells were cultured in Dulbecco’ modified Eagle medium (DMEM) High glucose supplemented with 0.5% FBS (Hyclone, Logan, UT, USA). After 24 h, culture media was changed with DMEM High glucose containing 10% FBS. DNA constructs, which includes pCMX-Gal4-ERRγ, pFR-luciferase reporter plasmid, pCMV-β-gal were transiently transfected into AD293 cells using TransIT-LT1 transfection reagent (Mirus, Madison, WI, USA) for 24 h. Then, transfected cells were treated with compounds for 24 h and harvested for detection of luciferase activity and β-gal activity. All cells were incubated at 37 °C under 5% CO2 in a humidified incubator [5].

ERRα = target: T2, ERRα (Homo sapiens, UniProt P11474); assay: TR-FRET (LanthaScreen) ERRα binding assay; conditions: maximum concentration tested 10 μM
T2 construct: purchased Life Technologies
T2 sequence (P11474 193-421 limits assumed): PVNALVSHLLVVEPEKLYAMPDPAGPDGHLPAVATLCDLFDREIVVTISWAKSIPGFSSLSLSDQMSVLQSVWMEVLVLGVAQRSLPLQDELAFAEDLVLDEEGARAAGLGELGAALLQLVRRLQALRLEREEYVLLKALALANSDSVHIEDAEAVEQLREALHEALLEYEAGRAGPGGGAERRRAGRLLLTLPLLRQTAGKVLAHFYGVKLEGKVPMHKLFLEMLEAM
Description: (§1) ERRγ binding assay was conducted with Lantascreen assay system (Life Technologies, Grand Island, NY, USA), which was based on TR-FRET, followed by manufacturer’s instruction. Briefly, compounds were serially diluted with 2-fold staring from 10 μM and 10 μL of each diluent was added in 384 well plate. Then, GST-conjugated ERRγ LBD (ligand-binding domain) was added to be 5 nM. Next, the mixture of fluorescien-conjugated coactivator PGC1a (final concentration to be 500 nM) and Tb-a-GST antibody (final concentration to be 5 nM) was added. The reaction mixture was incubated at rt in dark state for 1 h.
(§2) ERRs and ERα binding assay used same assay system as ERRγ’s, Lanthascreen assay system. Therefore, procedure was same as ERRγ binding assay except tested enzymes (ERRα, ERRβ, ERα). Used reference compounds were 4-OHT 1 for ERα and ERRβ binding assay, and XCT790 for ERRα binding assay.

CYP2D6 = CYP2D6 (Homo sapiens, UniProt P10635); assay: CYP inhibition assay, cocktail, human liver microsomes (dextromethorphan O-demethylase); type: in vitro ADME; conditions: 10 μM, activity in presence of inhibitor as % of control
CYP2D6, sequence (P10635 whole entry): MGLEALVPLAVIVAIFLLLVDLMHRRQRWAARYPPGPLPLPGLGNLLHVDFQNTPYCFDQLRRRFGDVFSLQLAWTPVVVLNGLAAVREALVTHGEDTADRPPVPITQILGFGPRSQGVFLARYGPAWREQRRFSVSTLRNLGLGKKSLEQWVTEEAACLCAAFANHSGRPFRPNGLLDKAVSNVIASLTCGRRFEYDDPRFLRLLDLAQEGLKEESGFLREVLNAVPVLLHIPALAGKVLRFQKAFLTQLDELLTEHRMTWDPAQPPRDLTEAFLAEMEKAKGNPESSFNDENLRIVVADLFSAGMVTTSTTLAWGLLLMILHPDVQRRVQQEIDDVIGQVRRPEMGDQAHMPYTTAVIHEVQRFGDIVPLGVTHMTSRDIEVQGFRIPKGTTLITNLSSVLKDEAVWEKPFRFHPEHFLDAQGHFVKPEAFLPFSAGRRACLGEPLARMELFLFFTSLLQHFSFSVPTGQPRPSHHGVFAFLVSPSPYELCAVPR

ERRβ = target: T3, ERRβ (Homo sapiens, UniProt O95718); assay: TR-FRET (LanthaScreen) ERRβ binding assay; conditions: maximum concentration tested 10 μM
T3 construct: purchased Life Technologies
T3 sequence (O95718 208-432 limits assumed): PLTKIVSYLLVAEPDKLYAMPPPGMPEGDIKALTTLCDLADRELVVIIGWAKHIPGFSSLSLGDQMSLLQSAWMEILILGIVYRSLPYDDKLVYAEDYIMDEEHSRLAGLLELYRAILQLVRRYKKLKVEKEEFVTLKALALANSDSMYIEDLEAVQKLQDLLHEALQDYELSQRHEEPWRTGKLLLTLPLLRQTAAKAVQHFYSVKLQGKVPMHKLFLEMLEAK
Description: as §1, §2

ERRγ [2] = target: T4, ERRγ (Homo sapiens, UniProt P62508); assay: TR-FRET (LanthaScreen) ERRγ binding assay; conditions: Table 1 screening; 2-fold serial dilution from 10 μM; read-out: ERRγ, IC50 (binding inhibition of ERRγ binding activity)
T4 construct: purchased Life Technologies
T4 sequence (P62508 233-457 limits assumed): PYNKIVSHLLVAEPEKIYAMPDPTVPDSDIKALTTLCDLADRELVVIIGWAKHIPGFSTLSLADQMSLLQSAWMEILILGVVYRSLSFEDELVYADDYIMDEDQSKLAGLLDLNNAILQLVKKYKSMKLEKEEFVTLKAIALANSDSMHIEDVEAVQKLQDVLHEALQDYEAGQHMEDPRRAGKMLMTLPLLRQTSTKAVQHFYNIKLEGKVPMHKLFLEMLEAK
Description: Initials creening was conducted using a well established TR-FRET based ERRγ binding assay as described in the Experimental section at a concentration of 10 μM. Serial dilutions of the synthesized compounds were used to calculate IC50 values for the binding affinity with ERRγ.
as §1

ERα = target: T5, ERα (Homo sapiens, UniProt P03372); assay: TR-FRET (LanthaScreen) ERα binding assay; conditions: maximum concentration tested 10 μM
T5 construct: purchased Life Technologies
T5 sequence (P03372 311-547 limits assumed): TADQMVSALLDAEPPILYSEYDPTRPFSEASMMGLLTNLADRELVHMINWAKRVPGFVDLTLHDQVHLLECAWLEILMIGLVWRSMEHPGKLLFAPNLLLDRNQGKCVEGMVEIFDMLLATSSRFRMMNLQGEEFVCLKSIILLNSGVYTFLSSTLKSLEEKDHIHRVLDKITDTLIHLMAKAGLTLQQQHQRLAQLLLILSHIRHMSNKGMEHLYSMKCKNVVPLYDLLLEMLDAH
Description: as §1, §2

CYP3A = assay: CYP inhibition assay, cocktail, human liver microsomes (midazolam 1'-hydroxylase); type: in vitro ADME; conditions: 10 μM, activity in presence of inhibitor as % of control
CYP1A2 = target: T6, CYP1A2 (Homo sapiens, UniProt P05177); assay: CYP inhibition assay, cocktail, human liver microsomes (phenacetin O-deethylase); type: in vitro ADME; conditions: 10 μM, activity in presence of inhibitor as % of control
T6 sequence (P05177 1-516): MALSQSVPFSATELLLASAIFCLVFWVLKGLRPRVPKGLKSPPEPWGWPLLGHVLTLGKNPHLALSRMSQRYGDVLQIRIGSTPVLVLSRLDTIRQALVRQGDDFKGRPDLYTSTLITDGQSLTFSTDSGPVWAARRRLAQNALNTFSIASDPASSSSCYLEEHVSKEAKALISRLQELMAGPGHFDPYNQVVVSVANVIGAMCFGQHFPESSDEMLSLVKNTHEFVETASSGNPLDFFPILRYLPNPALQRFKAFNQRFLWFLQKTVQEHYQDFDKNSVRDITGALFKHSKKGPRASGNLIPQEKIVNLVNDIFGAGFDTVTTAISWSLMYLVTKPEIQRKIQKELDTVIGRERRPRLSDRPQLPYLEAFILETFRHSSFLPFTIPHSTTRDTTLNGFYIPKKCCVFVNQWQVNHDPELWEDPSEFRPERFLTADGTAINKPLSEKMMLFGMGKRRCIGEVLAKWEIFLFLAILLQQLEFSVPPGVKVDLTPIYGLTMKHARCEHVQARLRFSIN

hERG channel = hERG channel (Homo sapiens, UniProt Q12809); assay: hERG channel binding assay (predictor hERG fluorescence polarization)
hERG channel, sequence (Q12809 whole entry): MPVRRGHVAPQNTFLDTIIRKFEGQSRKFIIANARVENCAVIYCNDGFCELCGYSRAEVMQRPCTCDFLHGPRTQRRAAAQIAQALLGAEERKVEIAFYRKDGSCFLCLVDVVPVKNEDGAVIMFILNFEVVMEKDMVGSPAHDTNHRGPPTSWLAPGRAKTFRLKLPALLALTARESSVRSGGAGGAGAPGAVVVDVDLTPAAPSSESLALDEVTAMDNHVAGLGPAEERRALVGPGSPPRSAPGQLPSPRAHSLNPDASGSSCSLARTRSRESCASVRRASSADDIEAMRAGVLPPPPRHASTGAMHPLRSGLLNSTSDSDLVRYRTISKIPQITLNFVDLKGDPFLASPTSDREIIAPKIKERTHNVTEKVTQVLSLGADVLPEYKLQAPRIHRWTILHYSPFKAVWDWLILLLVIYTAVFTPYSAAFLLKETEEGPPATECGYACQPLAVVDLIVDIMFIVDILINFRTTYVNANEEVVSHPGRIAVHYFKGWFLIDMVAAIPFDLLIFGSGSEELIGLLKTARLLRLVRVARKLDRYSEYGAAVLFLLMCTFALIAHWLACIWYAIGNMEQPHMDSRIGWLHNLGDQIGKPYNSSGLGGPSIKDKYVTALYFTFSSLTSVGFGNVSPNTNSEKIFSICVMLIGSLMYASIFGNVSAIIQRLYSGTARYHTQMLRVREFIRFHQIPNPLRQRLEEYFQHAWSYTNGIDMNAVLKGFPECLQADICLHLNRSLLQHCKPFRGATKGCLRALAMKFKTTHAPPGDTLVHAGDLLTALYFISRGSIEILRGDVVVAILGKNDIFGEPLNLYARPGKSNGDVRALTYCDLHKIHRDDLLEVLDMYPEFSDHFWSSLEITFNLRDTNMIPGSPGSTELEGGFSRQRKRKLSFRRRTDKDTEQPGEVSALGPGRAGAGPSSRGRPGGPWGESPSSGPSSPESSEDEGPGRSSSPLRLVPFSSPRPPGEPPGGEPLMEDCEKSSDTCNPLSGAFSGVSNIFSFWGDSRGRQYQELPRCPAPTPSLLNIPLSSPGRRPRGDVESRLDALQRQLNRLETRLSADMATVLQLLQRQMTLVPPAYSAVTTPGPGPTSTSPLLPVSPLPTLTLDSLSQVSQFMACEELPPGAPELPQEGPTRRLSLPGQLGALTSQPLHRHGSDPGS
Description: hERG channel binding assay was performed using predictor hERG fluorescence polarization assay (Cat.No. PV5365, Invitrogen, Grand Island, NY, USA) according to the manufacturer’s instructions. […] Fluorescence intensity (Excitation at 530 nm, Emission at 590 nm) was measured using a multi-mode microplate reader Synergy Neo (Biotek, Winooski, VT, USA).

CYP2C19, sequence (P33261 whole entry): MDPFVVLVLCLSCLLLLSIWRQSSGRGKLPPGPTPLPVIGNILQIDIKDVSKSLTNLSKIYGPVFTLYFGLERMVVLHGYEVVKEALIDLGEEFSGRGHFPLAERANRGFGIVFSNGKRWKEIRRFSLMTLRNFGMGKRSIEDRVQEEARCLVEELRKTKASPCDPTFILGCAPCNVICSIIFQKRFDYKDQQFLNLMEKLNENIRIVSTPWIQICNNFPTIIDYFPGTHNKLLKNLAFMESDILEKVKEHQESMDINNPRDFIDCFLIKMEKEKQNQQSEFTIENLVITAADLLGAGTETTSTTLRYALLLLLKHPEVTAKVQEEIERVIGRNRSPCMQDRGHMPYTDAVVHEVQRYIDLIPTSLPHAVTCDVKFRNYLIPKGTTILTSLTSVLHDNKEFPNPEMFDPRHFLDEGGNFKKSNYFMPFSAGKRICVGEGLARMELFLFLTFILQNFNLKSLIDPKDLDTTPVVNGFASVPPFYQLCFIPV

For CN(C)CCOc1ccc(/C(=C(/CCCO)c2ccc3cnn(C)c3c2)c2ccc(O)cc2)cc1 [Compound 15g, (Z)-4-(1-(4-(2-(Dimethylamino)ethoxy)phenyl)-5-hydroxy-2-(1-methyl-1H-indazol-6-yl)pent-1-en-1-yl)phenol], the “CYP Inhibition (% of Control), 2C19” value (CYP2C19) was 95 % of Control, the “CYP Inhibition (% of Control), 2C9” value (CYP2C9; 10 μM, human liver microsomes, activity in presence of inhibitor as % of control) was 83 % of Control and the “inhibition of the CYP 2C9 subtype” value (CYP2C9; at a concentration of 10 μM) was 17%. The “ERRγ Functional Assay at 10 μM (% of Control)” value (ERRγ [1]; 10 μM, AD293 cells, 24 h treatment, luciferase activity) was 5.4 % of Control, the “ERRγ functional activity in the cellular system (in words)” value (ERRγ [1]; 10 μM, reporter-gene assay, compared with control ligand 4) was “comparable regression of the ERRγ transcriptional activity” and the inhibition at 10 µM (ERRγ [1]; AD293, 24 h, screening concentration of 10 μM, read-out: transcriptional repression) was 95%. The “Binding Assay, IC50, ERRα” value (ERRα) was “no observable affinity”, the IC50 (ERRα) was greater than 10 µM and the “CYP Inhibition (% of Control), 2D6” value (CYP2D6) was 99 % of Control. For the same molecule, the “Binding Assay, IC50, ERRβ” value (ERRβ) was “no observable affinity”, the IC50 (ERRβ) was greater than 10 µM and the IC50 (ERRγ [2]) was 0.44 µM. For the same molecule, the IC50 (ERα) was greater than 10 µM, the “CYP Inhibition (% of Control), 3A4” value (CYP3A) was 88 % of Control and the “CYP Inhibition (% of Control), 1A2” value (CYP1A2) was >100 % of Control. It also gave an IC50 (hERG channel) greater than 30 µM.
